Test results taken from ChEMBL document CHEMBL3797029, “Purinylpyridinylamino-based DFG-in/αC-helix-out B-Raf inhibitors: Applying mutant versus wild-type B-Raf selectivity indices for compound profiling” (Bioorg Med Chem, 2016).

What was measured:
[1] = target: Interferon-induced, double-stranded RNA-activated protein kinase (Homo sapiens) (UniProt P19525); assay: Inhibition of partial length wild type human PRKR expressed in bacterial system assessed as enzyme activity at 1 uM relative to control; parameters: scale not given: the % may be the effect or the level left
[2] = target: Mitogen-activated protein kinase 14 (Homo sapiens) (UniProt Q16539); assay: Inhibition of full length wild type human p38alpha expressed in bacterial system assessed as enzyme activity at 1 uM relative to control; parameters: scale not given: the % may be the effect or the level left
[3] = target: Glycogen synthase kinase-3 beta (Homo sapiens) (UniProt P49841); assay: Inhibition of full length wild type human GSK3beta expressed in mammalian system assessed as enzyme activity at 1 uM relative to control; parameters: scale not given: the % may be the effect or the level left
[4] = target: Serine/threonine-protein kinase Nek6 (Homo sapiens) (UniProt Q9HC98); assay: Inhibition of full length wild type human NEK6 expressed in bacterial system assessed as enzyme activity at 1 uM relative to control; parameters: scale not given: the % may be the effect or the level left
[5] = target: Serine/threonine-protein kinase D2 (Homo sapiens) (UniProt Q9BZL6); assay: Inhibition of partial length wild type human PRKD2 expressed in bacterial system assessed as enzyme activity at 1 uM relative to control; parameters: scale not given: the % may be the effect or the level left
[6] = target: Mitogen-activated protein kinase 10 (Homo sapiens) (UniProt P53779); assay: Inhibition of partial length wild type human JNK3 expressed in mammalian system assessed as enzyme activity at 1 uM relative to control; parameters: scale not given: the % may be the effect or the level left
[7] = target: Calcium/calmodulin-dependent protein kinase type IV (Homo sapiens) (UniProt Q16566); assay: Inhibition of partial length wild type human CAMK4 expressed in bacterial system assessed as enzyme activity at 1 uM relative to control; parameters: scale not given: the % may be the effect or the level left
[8] = test system: cAMP-dependent protein kinase catalytic subunit alpha; assay: Inhibition of partial length wild type human PKACalpha expressed in bacterial system assessed as enzyme activity at 1 uM relative to control; parameters: scale not given: the % may be the effect or the level left
[9] = test system: RIPK2 (Receptor-interacting serine/threonine-protein kinase 2); assay: Inhibition of partial length wild type human RIPK2 expressed in bacterial system assessed as enzyme activity at 1 uM relative to control; parameters: scale not given: the % may be the effect or the level left
[10] = target: Serine/threonine-protein kinase PLK1 (Homo sapiens) (UniProt P53350); assay: Inhibition of partial length wild type human PLK1 expressed in mammalian system assessed as enzyme activity at 1 uM relative to control; parameters: scale not given: the % may be the effect or the level left
[11] = target: Dual specificity protein kinase CLK1 (Homo sapiens) (UniProt P49759); assay: Inhibition of full length wild type human CLK1 expressed in bacterial system assessed as enzyme activity at 1 uM relative to control; parameters: scale not given: the % may be the effect or the level left
[12] = target: Cyclin-G-associated kinase (Homo sapiens) (UniProt O14976); assay: Inhibition of partial length wild type human GAK expressed in bacterial system assessed as enzyme activity at 1 uM relative to control; parameters: scale not given: the % may be the effect or the level left
[13] = target: MAP/microtubule affinity-regulating kinase 3 (Homo sapiens) (UniProt P27448); assay: Inhibition of full length wild type human MARK3 expressed in bacterial system assessed as enzyme activity at 1 uM relative to control; parameters: scale not given: the % may be the effect or the level left
[14] = target: Tyrosine-protein kinase SYK (Homo sapiens) (UniProt P43405); assay: Inhibition of partial length wild type human SYK expressed in bacterial system assessed as enzyme activity at 1 uM relative to control; parameters: scale not given: the % may be the effect or the level left
[15] = target: Tyrosine-protein kinase ABL1 (Homo sapiens) (UniProt P00519); assay: Inhibition of partial length wild type phosphorylated human ABL1 expressed in mammalian system assessed as enzyme activity at 1 uM relative to control; parameters: scale not given: the % may be the effect or the level left
[16] = target: Testis-specific serine/threonine-protein kinase 1 (Homo sapiens) (UniProt Q9BXA7); assay: Inhibition of full length wild type human TSSK1B expressed in bacterial system assessed as enzyme activity at 1 uM relative to control; parameters: scale not given: the % may be the effect or the level left
[17] = target: Tyrosine-protein kinase ABL1 (Homo sapiens) (UniProt P00519); assay: Inhibition of partial length wild type nonphosphorylated human ABL1 expressed in mammalian system assessed as enzyme activity at 1 uM relative to control; parameters: scale not given: the % may be the effect or the level left
[18] = target: Mitogen-activated protein kinase kinase kinase 19 (Homo sapiens) (UniProt Q56UN5); assay: Inhibition of partial length wild type human YSK4 expressed in mammalian system assessed as enzyme activity at 1 uM relative to control; parameters: scale not given: the % may be the effect or the level left
[19] = target: Mitogen-activated protein kinase kinase kinase 7 (Homo sapiens) (UniProt O43318); assay: Inhibition of partial length wild type human TAK1 expressed in mammalian system assessed as enzyme activity at 1 uM relative to control; parameters: scale not given: the % may be the effect or the level left
[20] = target: Mitogen-activated protein kinase kinase kinase 9 (Homo sapiens) (UniProt P80192); assay: Inhibition of partial length wild type human MLK1 expressed in bacterial system assessed as enzyme activity at 1 uM relative to control; parameters: scale not given: the % may be the effect or the level left
[21] = target: 5'-AMP-activated protein kinase catalytic subunit alpha-1 (Homo sapiens) (UniProt Q13131); assay: Inhibition of partial length wild type human AMPKalpha1 expressed in bacterial system assessed as enzyme activity at 1 uM relative to control; parameters: scale not given: the % may be the effect or the level left
[22] = target: MAP kinase-activated protein kinase 2 (Homo sapiens) (UniProt P49137); assay: Inhibition of partial length wild type human MAPKAPK2 expressed in bacterial system assessed as enzyme activity at 1 uM relative to control; parameters: scale not given: the % may be the effect or the level left
[23] = target: Dual specificity protein kinase CLK4 (Homo sapiens) (UniProt Q9HAZ1); assay: Inhibition of partial length wild type human CLK4 expressed in bacterial system assessed as enzyme activity at 1 uM relative to control; parameters: scale not given: the % may be the effect or the level left
[24] = target: LIM domain kinase 1 (Homo sapiens) (UniProt P53667); assay: Inhibition of full length wild type human LIMK1 expressed in bacterial system assessed as enzyme activity at 1 uM relative to control; parameters: scale not given: the % may be the effect or the level left
[25] = target: Protein kinase C epsilon type (Homo sapiens) (UniProt Q02156); assay: Inhibition of partial length wild type human PRKCE expressed in mammalian system assessed as enzyme activity at 1 uM relative to control; parameters: scale not given: the % may be the effect or the level left
[26] = target: MAP kinase-interacting serine/threonine-protein kinase 1 (Homo sapiens) (UniProt Q9BUB5); assay: Inhibition of full length wild type human MKNK1 expressed in mammalian system assessed as enzyme activity at 1 uM relative to control; parameters: scale not given: the % may be the effect or the level left
[27] = target: Calcium/calmodulin-dependent protein kinase type II subunit delta (Homo sapiens) (UniProt Q13557); assay: Inhibition of partial length wild type human CAMK2delta expressed in bacterial system assessed as enzyme activity at 1 uM relative to control; parameters: scale not given: the % may be the effect or the level left
[28] = target: Ribosomal protein S6 kinase alpha-5 (Homo sapiens) (UniProt O75582); assay: Inhibition of partial length wild type human RPS6KA5 (N-terminal Kinase Domain 1) expressed in bacterial system assessed as enzyme activity at 1 uM relative to control; parameters: scale not given: the % may be the effect or the level left
[29] = target: Rho-associated protein kinase 2 (Homo sapiens) (UniProt O75116); assay: Inhibition of partial length wild type human ROCK2 expressed in mammalian system assessed as enzyme activity at 1 uM relative to control; parameters: scale not given: the % may be the effect or the level left
[30] = target: Ribosomal protein S6 kinase beta-1 (Homo sapiens) (UniProt P23443); assay: Inhibition of partial length wild type human S6K1 expressed in mammalian system assessed as enzyme activity at 1 uM relative to control; parameters: scale not given: the % may be the effect or the level left
[31] = target: Serine/threonine-protein kinase B-raf (Homo sapiens, UniProt P15056, V600E); assay: Inhibition of B-Raf V600E mutant in human A375 cells assessed as ERK phosphorylation preincubated for 1 hr by Western blot method; assay type: cell-based, A-375

Tyrosine-protein kinase ABL1 (Homo sapiens), sequence (P00519 whole entry): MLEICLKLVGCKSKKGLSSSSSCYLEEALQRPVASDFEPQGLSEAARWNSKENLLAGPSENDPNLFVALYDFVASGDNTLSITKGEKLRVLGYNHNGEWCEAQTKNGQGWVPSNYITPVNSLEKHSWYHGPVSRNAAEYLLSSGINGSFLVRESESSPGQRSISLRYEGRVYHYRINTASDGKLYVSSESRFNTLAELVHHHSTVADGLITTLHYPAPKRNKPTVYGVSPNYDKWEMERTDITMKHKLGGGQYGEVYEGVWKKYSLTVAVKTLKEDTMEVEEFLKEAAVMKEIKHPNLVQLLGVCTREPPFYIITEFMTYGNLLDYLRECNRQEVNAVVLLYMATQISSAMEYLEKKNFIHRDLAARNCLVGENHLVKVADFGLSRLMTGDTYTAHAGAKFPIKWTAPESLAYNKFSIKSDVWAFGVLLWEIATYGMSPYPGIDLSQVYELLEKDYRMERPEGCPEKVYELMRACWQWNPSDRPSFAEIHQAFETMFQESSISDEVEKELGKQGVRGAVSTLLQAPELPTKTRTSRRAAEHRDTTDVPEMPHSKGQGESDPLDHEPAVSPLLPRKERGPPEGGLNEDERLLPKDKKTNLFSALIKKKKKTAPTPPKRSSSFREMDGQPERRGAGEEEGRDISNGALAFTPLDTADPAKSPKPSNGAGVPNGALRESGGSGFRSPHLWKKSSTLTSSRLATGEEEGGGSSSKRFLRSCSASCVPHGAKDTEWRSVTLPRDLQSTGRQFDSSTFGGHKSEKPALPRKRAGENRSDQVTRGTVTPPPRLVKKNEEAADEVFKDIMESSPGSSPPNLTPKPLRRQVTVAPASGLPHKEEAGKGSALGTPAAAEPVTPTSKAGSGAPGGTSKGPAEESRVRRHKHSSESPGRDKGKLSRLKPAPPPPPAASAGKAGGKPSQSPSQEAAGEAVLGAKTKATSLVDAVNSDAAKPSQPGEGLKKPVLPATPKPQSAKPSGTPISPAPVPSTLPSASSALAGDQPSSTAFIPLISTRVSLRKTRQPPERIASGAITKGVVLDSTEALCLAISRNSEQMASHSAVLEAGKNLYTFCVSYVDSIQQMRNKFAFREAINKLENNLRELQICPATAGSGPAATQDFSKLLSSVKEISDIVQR
Serine/threonine-protein kinase Nek6 (Homo sapiens), sequence (Q9HC98 whole entry): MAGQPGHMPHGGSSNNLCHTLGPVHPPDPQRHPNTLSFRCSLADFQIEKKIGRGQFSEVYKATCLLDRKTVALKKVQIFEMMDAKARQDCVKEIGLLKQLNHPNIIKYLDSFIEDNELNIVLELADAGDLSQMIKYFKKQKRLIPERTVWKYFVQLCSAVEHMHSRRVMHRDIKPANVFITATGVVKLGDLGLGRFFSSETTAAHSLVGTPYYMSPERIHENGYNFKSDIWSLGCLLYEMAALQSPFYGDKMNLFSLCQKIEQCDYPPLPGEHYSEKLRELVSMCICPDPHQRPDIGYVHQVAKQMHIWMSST
Interferon-induced, double-stranded RNA-activated protein kinase (Homo sapiens), sequence (P19525 whole entry): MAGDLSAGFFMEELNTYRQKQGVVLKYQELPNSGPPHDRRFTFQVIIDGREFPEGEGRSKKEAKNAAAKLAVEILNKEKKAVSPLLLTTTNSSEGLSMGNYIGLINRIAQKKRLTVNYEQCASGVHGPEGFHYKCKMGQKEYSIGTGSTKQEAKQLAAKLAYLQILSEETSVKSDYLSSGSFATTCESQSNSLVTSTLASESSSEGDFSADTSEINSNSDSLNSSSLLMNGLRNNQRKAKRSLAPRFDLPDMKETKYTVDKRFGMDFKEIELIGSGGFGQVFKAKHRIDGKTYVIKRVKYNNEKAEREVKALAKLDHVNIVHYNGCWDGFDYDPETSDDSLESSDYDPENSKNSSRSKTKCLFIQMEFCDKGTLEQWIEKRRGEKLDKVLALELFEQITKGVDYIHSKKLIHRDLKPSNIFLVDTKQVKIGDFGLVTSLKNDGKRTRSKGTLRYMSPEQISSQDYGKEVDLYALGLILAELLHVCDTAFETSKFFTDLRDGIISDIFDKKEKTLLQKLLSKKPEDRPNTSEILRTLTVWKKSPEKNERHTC
Mitogen-activated protein kinase kinase kinase 19 (Homo sapiens), sequence (Q56UN5 whole entry): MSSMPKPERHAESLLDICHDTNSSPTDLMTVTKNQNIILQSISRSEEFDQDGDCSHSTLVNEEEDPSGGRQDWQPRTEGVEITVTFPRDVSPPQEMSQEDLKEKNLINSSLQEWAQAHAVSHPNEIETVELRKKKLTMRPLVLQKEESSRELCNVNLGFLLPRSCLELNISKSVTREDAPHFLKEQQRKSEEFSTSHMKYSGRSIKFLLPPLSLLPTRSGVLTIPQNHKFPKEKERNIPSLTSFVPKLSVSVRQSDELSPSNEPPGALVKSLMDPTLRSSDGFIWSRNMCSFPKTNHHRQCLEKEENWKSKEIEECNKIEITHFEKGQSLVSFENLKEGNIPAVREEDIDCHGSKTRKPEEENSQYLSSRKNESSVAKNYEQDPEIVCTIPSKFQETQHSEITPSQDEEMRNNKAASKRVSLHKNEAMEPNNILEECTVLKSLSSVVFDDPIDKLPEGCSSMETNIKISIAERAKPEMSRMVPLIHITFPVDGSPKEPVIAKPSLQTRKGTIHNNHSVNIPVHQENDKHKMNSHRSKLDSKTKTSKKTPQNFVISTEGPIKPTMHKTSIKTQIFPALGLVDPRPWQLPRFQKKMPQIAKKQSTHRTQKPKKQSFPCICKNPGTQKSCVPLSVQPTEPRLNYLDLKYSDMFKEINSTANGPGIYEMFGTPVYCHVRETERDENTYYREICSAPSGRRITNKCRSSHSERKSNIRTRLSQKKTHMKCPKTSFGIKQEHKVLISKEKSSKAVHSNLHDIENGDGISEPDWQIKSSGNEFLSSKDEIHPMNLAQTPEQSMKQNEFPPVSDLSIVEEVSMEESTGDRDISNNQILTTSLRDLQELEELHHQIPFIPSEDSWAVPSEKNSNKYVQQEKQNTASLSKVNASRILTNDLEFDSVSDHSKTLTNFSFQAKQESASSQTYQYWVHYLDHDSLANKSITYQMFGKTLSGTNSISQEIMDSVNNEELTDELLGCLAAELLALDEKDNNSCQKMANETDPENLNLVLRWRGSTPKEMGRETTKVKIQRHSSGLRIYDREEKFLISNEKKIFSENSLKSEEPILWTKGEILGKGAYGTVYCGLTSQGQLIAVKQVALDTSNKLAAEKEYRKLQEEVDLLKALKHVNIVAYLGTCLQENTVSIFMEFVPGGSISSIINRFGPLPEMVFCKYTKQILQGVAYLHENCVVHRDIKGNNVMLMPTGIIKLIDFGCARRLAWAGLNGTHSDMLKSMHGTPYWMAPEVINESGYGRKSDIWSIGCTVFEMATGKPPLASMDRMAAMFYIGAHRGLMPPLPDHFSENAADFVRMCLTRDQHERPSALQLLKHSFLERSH
MAP kinase-activated protein kinase 2 (Homo sapiens), sequence (P49137 whole entry, looked up): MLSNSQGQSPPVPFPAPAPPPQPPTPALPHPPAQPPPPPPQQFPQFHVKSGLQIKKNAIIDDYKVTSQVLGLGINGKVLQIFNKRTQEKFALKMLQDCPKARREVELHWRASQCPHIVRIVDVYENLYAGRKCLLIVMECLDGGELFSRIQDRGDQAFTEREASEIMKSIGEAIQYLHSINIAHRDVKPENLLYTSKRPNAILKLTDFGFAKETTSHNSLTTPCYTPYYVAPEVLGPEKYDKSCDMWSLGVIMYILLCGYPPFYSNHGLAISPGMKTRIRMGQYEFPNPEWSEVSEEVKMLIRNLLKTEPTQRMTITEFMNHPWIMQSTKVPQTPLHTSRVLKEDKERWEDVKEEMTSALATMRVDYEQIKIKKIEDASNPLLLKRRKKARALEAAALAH
Mitogen-activated protein kinase 14 (Homo sapiens), sequence (Q16539 whole entry): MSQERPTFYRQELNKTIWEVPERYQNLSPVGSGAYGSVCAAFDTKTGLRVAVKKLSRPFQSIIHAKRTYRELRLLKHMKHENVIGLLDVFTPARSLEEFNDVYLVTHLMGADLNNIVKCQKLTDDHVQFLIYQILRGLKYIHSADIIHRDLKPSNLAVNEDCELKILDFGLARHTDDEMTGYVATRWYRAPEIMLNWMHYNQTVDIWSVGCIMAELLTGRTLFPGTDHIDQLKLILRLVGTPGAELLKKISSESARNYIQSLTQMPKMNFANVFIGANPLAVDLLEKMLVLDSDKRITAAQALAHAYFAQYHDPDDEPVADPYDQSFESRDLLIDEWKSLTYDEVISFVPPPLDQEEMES
Dual specificity protein kinase CLK1 (Homo sapiens), sequence (P49759 whole entry, looked up): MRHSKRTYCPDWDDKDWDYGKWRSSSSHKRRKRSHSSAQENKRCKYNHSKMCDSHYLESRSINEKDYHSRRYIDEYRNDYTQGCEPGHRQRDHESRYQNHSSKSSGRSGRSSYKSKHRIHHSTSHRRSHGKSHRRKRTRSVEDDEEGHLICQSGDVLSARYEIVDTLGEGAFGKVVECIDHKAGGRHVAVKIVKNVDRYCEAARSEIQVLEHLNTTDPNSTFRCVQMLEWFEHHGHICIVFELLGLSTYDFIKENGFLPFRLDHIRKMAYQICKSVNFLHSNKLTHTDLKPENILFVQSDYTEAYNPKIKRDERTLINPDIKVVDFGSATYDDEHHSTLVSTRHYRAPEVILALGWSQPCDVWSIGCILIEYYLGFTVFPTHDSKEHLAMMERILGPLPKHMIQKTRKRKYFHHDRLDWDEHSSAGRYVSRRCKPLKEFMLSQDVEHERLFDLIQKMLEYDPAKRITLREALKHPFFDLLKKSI
Dual specificity protein kinase CLK4 (Homo sapiens), sequence (Q9HAZ1 whole entry, looked up, the tested form may be a part): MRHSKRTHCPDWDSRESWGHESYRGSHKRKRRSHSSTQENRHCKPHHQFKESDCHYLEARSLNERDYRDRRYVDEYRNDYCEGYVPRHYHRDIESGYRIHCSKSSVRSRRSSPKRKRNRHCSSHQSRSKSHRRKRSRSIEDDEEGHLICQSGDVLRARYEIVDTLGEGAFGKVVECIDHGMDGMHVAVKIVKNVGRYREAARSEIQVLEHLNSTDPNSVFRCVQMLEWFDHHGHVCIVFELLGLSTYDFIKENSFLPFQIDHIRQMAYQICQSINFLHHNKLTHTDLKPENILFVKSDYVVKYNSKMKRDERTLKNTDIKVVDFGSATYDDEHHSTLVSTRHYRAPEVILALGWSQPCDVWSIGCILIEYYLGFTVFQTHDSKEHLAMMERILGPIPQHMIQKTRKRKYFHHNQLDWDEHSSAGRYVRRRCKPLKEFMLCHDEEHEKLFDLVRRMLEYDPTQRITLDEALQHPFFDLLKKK

CN(C)S(=O)(=O)Nc1ccc(F)c(Nc2ncccc2-c2ncnc3[nH]cnc23)c1F
Activity [1]: 83% | Activity [2]: 91% | Activity [3]: 100% | Activity [4]: 79% | Activity [5]: 88% | Activity [6]: 89% | Activity [7]: 83% | Activity [8]: 94% | Activity [9]: 40% | Activity [10]: 100% | Activity [11]: 90% | Activity [12]: 78% | Activity [13]: 87% | Activity [14]: 76% | Activity [15]: 100% | Activity [16]: 100% | Activity [17]: 96% | Activity [18]: 63% | Activity [19]: 70% | Activity [20]: 96% | Activity [21]: 92% | Activity [22]: 83% | Activity [23]: 70% | Activity [24]: 57% | Activity [25]: 87% | Activity [26]: 77% | Activity [27]: 83% | Activity [28]: 100% | Activity [29]: 92% | Activity [30]: 100% | IC50 [31]: 54 nM
